# PubChem BioAssay AID463199 (Broad Institute, 2010)
# The source made the active and inactive calls.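 Rule for the calls: active = AC50, the dose giving half-maximal effect, exceeds a fixed cutoff for a compound that rescues yeast growth under heat; inactive = the rest, inconclusive results apart.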
# Test system: S. cerevisiae Burl-1 ts mutant growth, BacTiter-Glo, 38.5C 24 h
# Assay: restored growth of temperature-sensitive Burl-1 yeast – whole organism, S. cerevisiae, Burl-1 ts mutant, luminescence, counter-screen for SUMOylation pathway inhibitor project, dose response (AID 463199)
row,SMILES,AC50
1,COc1ccc(NC2CC(=O)N(C(C)C)C2=O)cc1 (configuration not stated),> 42 µM (inactive)
2,COC(=O)c1ccc(/C=N/NC(=O)C(=O)NCC2CCCO2)cc1 (configuration not stated),> 42 µM (inactive)
3,CCOC(=O)c1sc2ncn(C(CC)C(=O)OCC)c(=O)c2c1C (configuration not stated),> 42 µM (inactive)
4,Cc1ccccc1P(=O)(CO)c1ccccc1C,> 42 µM (inactive)
5,Cc1nc2ccccc2n(CC(=O)Nc2cc(Cl)cc(Cl)c2)c1=O,> 42 µM (inactive)
6,CC1(C)CC(=O)C(CC2CCCCC2=O)C(=O)C1 (configuration not stated),> 42 µM (inactive)
7,CCOC(=O)c1c(C)[nH]c(C(=O)COC(=O)c2ccncc2)c1C,> 42 µM (inactive)
8,COc1cccc(OC)c1C(=O)Nc1ccc2c(c1)n(C)c(=O)n2C,> 42 µM (inactive)
9,O=C(Nc1ccc2ccccc2c1)N1CCCN(CCOc2ccccc2)CC1,> 42 µM (inactive)
10,Cc1cccc(N2CCN(C(=O)CN3C(=O)NC(C)(C)C3=O)CC2)c1C,> 42 µM (inactive)
11,CC1(C)C(C=C(Cl)Cl)C1C(=O)OCc1cccc(Oc2ccccc2)c1 (configuration not stated),> 42 µM (inactive)
12,COc1ccc(S(=O)(=O)N2CCc3cc4c(cc3C2C)OCCCO4)cc1 (configuration not stated),> 42 µM (inactive)
13,Cc1ccc2c(C)c(C(=O)N(C)C(C)c3ccncn3)oc2c1C (configuration not stated),> 42 µM (inactive)
14,CC1CCN(S(=O)(=O)c2ccc(NC(=O)c3cccs3)cc2)CC1,> 42 µM (inactive)
15,Cc1nc(-c2ccc(Cl)cc2)sc1C1(C)CC(c2c(Cl)cccc2Cl)=NO1 (configuration not stated),> 42 µM (inactive)
16,COc1ccc(CN2CCCCCC2)cc1,> 42 µM (inactive)
17,O=C(CCNS(=O)(=O)c1cccc2nsnc12)NCCC1=CCCCC1,> 42 µM (inactive)
18,Cc1ccc(N/N=C2/CCCNC2=O)cc1,> 42 µM (inactive)
19,O=C(COC(=O)CNC(=O)c1ccc(Cl)cc1)Nc1ncc(C(F)(F)F)cc1Cl,> 42 µM (inactive)
20,CC1CC(c2ccccc2)NS(=O)(=O)O1 (configuration not stated),> 42 µM (inactive)
21,O=c1cc(COc2ncnc3ccccc23)nc2sccn12,> 42 µM (inactive)
22,O=C1CN(C(=O)c2c(F)cccc2F)C(c2ccc(F)cc2)c2cc(F)ccc2N1 (configuration not stated),> 42 µM (inactive)
23,COC(=O)/C=C\C(=O)Nc1cccc([N+](=O)[O-])c1,> 42 µM (inactive)
24,CC1=C(C(N)=O)C(c2ccccn2)n2nc(SCc3ccccc3Cl)nc2N1 (configuration not stated),> 42 µM (inactive)

row,SMILES,AC50
1,Oc1ccc(C2=CSC3=NCCN23)cc1O,> 42 µM (inactive)
2,CCOC(=O)c1ccc(NC(=S)NCCCN2CCOCC2)cc1,> 42 µM (inactive)
3,CC(=O)N1CCc2cc(S(=O)(=O)NCCC3=CCCCC3)ccc21,> 42 µM (inactive)
4,Nc1ncnc2nc(SCC(=O)N3CCN(c4ccccc4)CC3)[nH]c12,> 42 µM (inactive)
5,COc1ccc(S(=O)(=O)Cc2ccc(C(=O)NCc3cccs3)o2)cc1,> 42 µM (inactive)
6,CCC(C)NCCOc1ccccc1C (configuration not stated),> 42 µM (inactive)
7,CN(CC(=O)Nc1ccccc1Sc1ccccc1)Cc1nc2ccccc2c(=O)[nH]1,> 42 µM (inactive)
8,CCOC(=O)CNC(=O)c1c(C)nn(C)c1Cl,> 42 µM (inactive)
9,COc1ccc(NS(=O)(=O)c2ccc(OCC(=O)N3CCOCC3)cc2)cc1Cl,> 42 µM (inactive)
10,CC1(C)C=C(c2ccc(O)cc2)CC(C)(C)N1,> 42 µM (inactive)
11,COc1ccccc1NC(=O)N1CCN(C(=O)Nc2ccccc2OC)CC1,> 42 µM (inactive)
12,Cc1ccc(Oc2ccccc2NC(=O)C2=COCCO2)cc1,> 42 µM (inactive)
13,CC(C)(C)NC(=O)C(c1cccs1)N(Cc1cccs1)C(=O)c1ccc(CN2CCOCC2)o1 (configuration not stated),> 42 µM (inactive)
14,Cc1cc(C)n(CCCNC(=O)CN(C)S(=O)(=O)c2ccc(Cl)cc2)n1,> 42 µM (inactive)
15,COc1nc(OC)nc(N2CCC(C(=O)NC3CCCCCC3)CC2)n1,> 42 µM (inactive)
16,O=c1c2c3c(sc2n2cnnc2n1-c1ccccc1)N(Cc1ccccc1)CCC3,> 42 µM (inactive)
17,CCOC(=O)C1=C(C)NC(=O)CC1c1cc2c(cc1[N+](=O)[O-])OCO2 (configuration not stated),22.3 µM
18,CC(c1ccccn1)N(CCN(C)C)C(=S)Nc1cccc(F)c1 (configuration not stated),> 42 µM (inactive)
19,Cc1nn(C)cc1CNC(=O)C1CCC(=O)N(Cc2cccc(C(F)(F)F)c2)C1 (configuration not stated),> 42 µM (inactive)
20,COc1ccc(CCNC(=O)c2cc(-c3ccco3)on2)cc1OC,> 42 µM (inactive)
21,COCC(C)n1c(-c2ccc3c(c2)NC(=O)CO3)csc1=Nc1ccc(OC(F)F)cc1 (configuration not stated),> 42 µM (inactive)
22,Cn1cc(C(=O)N2CCCC(Nc3ccc(F)cc3)C2)c2ccccc21 (configuration not stated),> 42 µM (inactive)
23,CC(C)C(CC(=O)NCc1ccco1)c1ccco1 (configuration not stated),> 42 µM (inactive)
24,CCOc1ccc(CCNC(=O)COC(=O)COc2ccc(C(C)=O)cc2)cc1OCC,> 42 µM (inactive)

row,SMILES,AC50
1,O=C(CC(c1ccccc1)c1ccccc1)NCCOCc1ccccc1,> 42 µM (inactive)
2,O=C(COC(=O)/C=C/c1ccco1)Nc1ncc(C(F)(F)F)cc1Cl,> 42 µM (inactive)
3,CN(C)C(=O)CSc1nc2ccc(N3C(=O)c4ccccc4C3=O)cc2s1,> 42 µM (inactive)
4,CCOc1ccc(Cl)cc1CNc1nnnn1CC,> 42 µM (inactive)
5,COCC(=O)n1nc(NCc2ccc(OC)cc2)nc1NCc1ccc(OC)cc1,> 42 µM (inactive)
6,Cc1ccc(C)c(OCCCC(=O)N2CCOCC2)c1,> 42 µM (inactive)
7,O=C(Nc1ccccn1)c1ccc(CN(c2ccccc2)S(=O)(=O)c2ccccc2)cc1,> 42 µM (inactive)
8,CCOC(=O)COc1nc(-c2ccc(C)cc2)cc(-c2ccco2)c1C#N,> 42 µM (inactive)
9,COc1ccc(C2=NN(C(=S)Nc3ccccc3)C(c3ccccc3)C2)cc1 (configuration not stated),> 42 µM (inactive)
10,CC[n+]1c(/C=C/N(C)c2ccccc2)n(-c2ccccc2)c2ccc(-c3nc4ccccc4s3)cc21,> 42 µM (inactive)
11,COc1cc(C(=O)N/N=C/c2ccccn2)cc(OC)c1OC,> 42 µM (inactive)
12,CN(C(=S)NC1=CCS(=O)(=O)C1)C1CCCCC1,> 42 µM (inactive)
13,CC(=O)Cc1nsc(Nc2cccc(C)c2)n1,> 42 µM (inactive)
14,CC1CCCC(C)N1C(=O)CSc1nnnn1-c1cccc2c1CCCC2 (configuration not stated),> 42 µM (inactive)
15,O=[N+]([O-])c1nn(-c2ccc(Cl)cc2)n(O)c1=NCc1ccccc1Cl,> 42 µM (inactive)
16,CCC1=Nc2cc(C(=O)NCc3ccco3)ccc2Sc2ccccc21,> 42 µM (inactive)
17,N/C(=N\N=C\c1ccc(O)cc1)c1nonc1N,> 42 µM (inactive)
18,COC(=O)c1cccc(NC(=O)CN(c2ccc3c(c2)OCO3)S(C)(=O)=O)c1C,> 42 µM (inactive)
19,Cc1ccccc1-n1ncc2c([N+](=O)[O-])cc([N+](=O)[O-])cc21,> 42 µM (inactive)
20,COc1ccc(NC(=O)c2cc(C)no2)cc1Cl,> 42 µM (inactive)
21,COC(=O)CCC(=O)OC1(C)C(=O)C=C2C=C(C3CC3)N(Cc3ccc4c(c3)OCO4)C=C2C1=O (configuration not stated),> 42 µM (inactive)
22,Cc1ccc(C(=O)NCCCNC(=O)c2ccc(C)nc2)cc1,> 42 µM (inactive)
23,O=C(NC(=S)NNC(=O)c1ccccc1O)c1cccc([N+](=O)[O-])c1,> 42 µM (inactive)
24,CCOc1ccc(-c2c(C(=O)N/N=C/c3ccncc3)nnn2-c2nonc2N)cc1,> 42 µM (inactive)
